GI50 and TGI data for six compounds are collected here from PubChem BioAssay (NCI).

Where “and” joins values, the source holds several entries; their conditions need not be identical. Equal values may be shown once.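 Interpolation was linear, between the two tested concentrations surrounding the appropriate level; five concentrations were tested over 48 hours in 96-well plates. Abbreviation: GI50, concentration required for 50% inhibition of growth. The concentration for full growth arrest is given as TGI.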

Test systems include 786-0 renal; HCT-116 colon; HCT-15 colon; IGROV1 ovarian; OVCAR-3 ovarian; SK-OV-3 ovarian; SN12C renal; SNB-75 CNS; U251 CNS; UACC-62 melanoma.
Common to all, as to assay: growth of human tumour cells (NCI), 48 h

As for `CC(=O)[CH-]C(C)=O.CC(=O)[CH-]C(C)=O.N=CC=N.[Sn+2]`, the GI50 in the assay on 786-0 renal is 1760 nM; with HCT-116 colon, 1720 nM; in the assay on HCT-15 colon it was 2700 nM; with IGROV1 ovarian, 9530 nM; with OVCAR-3 ovarian it was 2860 nM; with SK-OV-3 ovarian it was 8740 nM. The GI50 in the assay with SN12C renal was 2900 nM; in the assay on SNB-75 CNS, 3700 nM; with U251 CNS it was 5160 nM; with UACC-62 melanoma it was 2170 nM. Moreover, the TGI in the assay on 786-0 renal came out at 3230 nM; in the assay with HCT-116 colon it was 3420 nM; in the assay on HCT-15 colon, 7140 nM; with IGROV1 ovarian, 22400 nM; with OVCAR-3 ovarian, 9130 nM; with SK-OV-3 ovarian, 21700 nM. Moreover, the TGI was 9140 nM in the assay on SN12C renal, 13700 nM with SNB-75 CNS, 17100 nM with U251 CNS and 5850 nM with UACC-62 melanoma.

As to `CC(=O)O[C@H]1C(=O)[C@@]2(C)[C@H]([C@H](OC(=O)c3ccccc3)[C@]3([O-])C[C@H](OC(=O)[C@H]([O-])[C@@H](NC(=O)c4ccccc4)c4ccccc4)C(C)=C1C3(C)C)[C@]1(OC(C)=O)CO[C@@H]1C[C@@H]2[O-].[Fe+3]`, the GI50 with 786-0 renal was 261 nM and 2240 nM; in the assay on HCT-116 colon, 25.3 nM and 38.8 nM; in the assay on HCT-15 colon, 1970 nM and 2330 nM; in the assay with IGROV1 ovarian, 42.6 nM and 211 nM; in the assay with OVCAR-3 ovarian, 21.5 nM and 43.4 nM; with SK-OV-3 ovarian, 72.4 nM and 142 nM. Besides, the GI50 is 22.2 nM and 23 nM in the assay on SNB-75 CNS; 35.7 nM and 64.7 nM in the assay with U251 CNS; 238 nM and 87.5 nM in the assay on UACC-62 melanoma. Moreover, the TGI in the assay on 786-0 renal is 49100 nM and > 100000 nM; in the assay on HCT-15 colon it was 16200 nM and 17000 nM; in the assay on IGROV1 ovarian, 65000 nM and 72500 nM; in the assay with SK-OV-3 ovarian it was 11900 nM and > 100000 nM; in the assay with SN12C renal, 65000 nM and > 100000 nM; in the assay with SNB-75 CNS it was 274 nM and 505 nM. The TGI with U251 CNS was 7380 nM and 17200 nM; with UACC-62 melanoma it was 65000 nM and 15800 nM.

In the case of `CC1=C(C)C(=O)O[C@@H]([C@](C)(O)[C@]2(O)CC[C@@]3(O)[C@@H]4C[C@H]5O[C@]56CC=CC(=O)[C@]6(C)[C@H]4CC[C@]23C)C1`, the GI50 in the assay on 786-0 renal is 284 nM; in the assay on HCT-116 colon it was 113 nM; in the assay with HCT-15 colon it was 152 nM; in the assay on IGROV1 ovarian, 283 nM; in the assay on OVCAR-3 ovarian it was 66.7 nM; with SK-OV-3 ovarian it was 909 nM. The GI50 in the assay on SN12C renal is 411 nM; in the assay with SNB-75 CNS it was 32.2 nM; with U251 CNS it was 483 nM; with UACC-62 melanoma, 99.6 nM. The TGI with 786-0 renal amounted to 1960 nM; with HCT-116 colon it was 1090 nM; with HCT-15 colon, 1250 nM; with IGROV1 ovarian it was 2590 nM; in the assay with OVCAR-3 ovarian, 405 nM; in the assay on SK-OV-3 ovarian, 18800 nM. Moreover, the TGI in the assay on SN12C renal came out at 3630 nM; in the assay on SNB-75 CNS it was 1200 nM; in the assay on U251 CNS it was 2230 nM; in the assay with UACC-62 melanoma, 1570 nM.

As to `N#Cc1c(N)c(C(=O)O)nn(-c2cccc(C(F)(F)F)c2)c1=O`, the TGI with 786-0 renal, with HCT-116 colon, in the assay on HCT-15 colon, in the assay with IGROV1 ovarian, in the assay with OVCAR-3 ovarian and in the assay on SK-OV-3 ovarian was over 100000 nM throughout. Moreover, the TGI in the assay on SN12C renal, in the assay with SNB-75 CNS, in the assay with U251 CNS and in the assay on UACC-62 melanoma was over 100000 nM each time.

`COc1ccc2c(c1)C=CC(C#N)N2C(=O)c1ccccc1` (stereo not given): the GI50 in the assay on 786-0 renal was under 10 nM; with HCT-116 colon, under 10 nM; with HCT-15 colon, under 10 nM; with OVCAR-3 ovarian, under 10 nM; in the assay with SK-OV-3 ovarian it was under 10 nM; with SN12C renal, under 11.9 nM. Besides, the GI50 in the assay on SNB-75 CNS, in the assay with U251 CNS and in the assay on UACC-62 melanoma was under 10 nM throughout. Also, the TGI with 786-0 renal, with HCT-116 colon, with HCT-15 colon, with IGROV1 ovarian, with SK-OV-3 ovarian and in the assay on SN12C renal was over 100000 nM throughout. Moreover, the TGI in the assay with SNB-75 CNS, with U251 CNS and with UACC-62 melanoma was over 100000 nM in each case.

For the compound `CNC(=O)c1cc(Oc2ccc(NC(=O)Nc3ccc(Cl)c(OC(F)(F)F)c3)c(F)c2)ccn1`, the GI50 with 786-0 renal was 4650 nM; in the assay with HCT-116 colon it was 1150 nM; with HCT-15 colon, 1580 nM; with IGROV1 ovarian it was 2300 nM; in the assay on OVCAR-3 ovarian, 1780 nM; in the assay with SK-OV-3 ovarian, 4320 nM. The GI50 is 2050 nM in the assay on SN12C renal, 5350 nM with SNB-75 CNS, 2320 nM with U251 CNS and 1340 nM in the assay with UACC-62 melanoma. Further, the TGI in the assay with 786-0 renal was over 33200 nM; in the assay on HCT-116 colon, 8080 nM; with HCT-15 colon, 18000 nM; in the assay on IGROV1 ovarian it was 16600 nM; in the assay with OVCAR-3 ovarian it was 11000 nM; with SK-OV-3 ovarian, over 33200 nM. The TGI with SN12C renal stood at 23000 nM; in the assay with SNB-75 CNS it was 13500 nM; in the assay on U251 CNS, 13700 nM; in the assay on UACC-62 melanoma, 10000 nM.
